Laboratory results: patent publication US20240092758A1, “IMIDAZOLO INDAZOLE COMPOUNDS AS JAK INHIBITORS” (Theravance Biopharma R&D IP, LLC, priority 2021, published 2024)

Experiments:
[1] = system: IL-13 induced STAT6 phosphorylation in BEAS-2B human lung epithelial cells; test: Cellular JAKI potency assay (BEAS-2B); assay type: cell-based; details: Homo sapiens, BEAS-2B, BEAS-2B cells, read-out: BEAS2B pIC50 (converted)
Procedure, shortened: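 BEAS-2B cells were preincubated with compound (0.1% DMSO) in HBSS/HEPES/BSA for 1 h at 37 °C, then stimulated with IL-13 (80 ng/mL before addition) for 30 min. After lysis, pSTAT6 (Tyr641) was quantified by AlphaLISA SureFire; IC50 from a 4-parameter fit of percent inhibition, reported as pIC50.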

JAK1 = JAK1 (Homo sapiens (Human), UniProt P23458); test: Biochemical JAK kinase assay (LanthaScreen), JAK1; details: for Ki: read-out: JAK1 pKi (converted)
Chain of JAK1 (P23458 whole entry): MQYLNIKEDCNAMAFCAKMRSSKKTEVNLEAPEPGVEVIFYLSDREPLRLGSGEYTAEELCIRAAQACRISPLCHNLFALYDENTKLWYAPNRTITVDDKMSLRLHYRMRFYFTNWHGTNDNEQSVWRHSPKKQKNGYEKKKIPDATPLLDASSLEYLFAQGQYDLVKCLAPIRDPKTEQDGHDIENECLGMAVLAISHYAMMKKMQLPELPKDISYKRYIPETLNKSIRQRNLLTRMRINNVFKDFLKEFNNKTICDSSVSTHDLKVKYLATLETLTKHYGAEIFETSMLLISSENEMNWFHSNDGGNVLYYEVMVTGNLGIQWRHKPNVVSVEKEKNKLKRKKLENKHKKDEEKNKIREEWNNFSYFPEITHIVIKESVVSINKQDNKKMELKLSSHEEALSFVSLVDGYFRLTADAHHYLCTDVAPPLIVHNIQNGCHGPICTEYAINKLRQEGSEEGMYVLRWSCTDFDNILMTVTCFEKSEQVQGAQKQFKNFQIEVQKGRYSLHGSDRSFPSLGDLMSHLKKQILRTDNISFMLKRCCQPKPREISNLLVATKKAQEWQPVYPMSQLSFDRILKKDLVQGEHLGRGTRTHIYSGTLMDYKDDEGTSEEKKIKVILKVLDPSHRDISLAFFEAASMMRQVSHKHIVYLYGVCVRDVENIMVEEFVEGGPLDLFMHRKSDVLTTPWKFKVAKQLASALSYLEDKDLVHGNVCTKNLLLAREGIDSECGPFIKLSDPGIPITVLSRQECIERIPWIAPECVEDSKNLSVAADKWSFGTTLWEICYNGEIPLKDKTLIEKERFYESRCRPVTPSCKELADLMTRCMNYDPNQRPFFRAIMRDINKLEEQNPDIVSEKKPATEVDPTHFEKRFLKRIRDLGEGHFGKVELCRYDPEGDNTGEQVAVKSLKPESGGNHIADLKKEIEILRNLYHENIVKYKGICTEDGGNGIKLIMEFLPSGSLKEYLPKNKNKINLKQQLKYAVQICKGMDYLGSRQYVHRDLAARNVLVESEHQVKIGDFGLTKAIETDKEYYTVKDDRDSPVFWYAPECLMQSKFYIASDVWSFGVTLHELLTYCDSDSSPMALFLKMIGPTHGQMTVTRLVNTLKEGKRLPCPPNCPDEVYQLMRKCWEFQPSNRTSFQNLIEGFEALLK
Procedure, shortened: (§1)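 LanthaScreen format: phospho-STAT1 (pTyr701) detected with 2 nM Tb antibody after 10 mM EDTA quench. Kinase step used Km-level ATP and 200 nM STAT1 peptide, 1 h at ambient after 1 h pre-incubation. Inhibition fitted to IC50, reported as pKi.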

JAK2 = JAK2 (Homo sapiens (Human), UniProt O60674); test: Biochemical JAK kinase assay (LanthaScreen), JAK2; details: for Ki: read-out: JAK2 pKi (converted)
Chain of JAK2 (O60674 whole entry): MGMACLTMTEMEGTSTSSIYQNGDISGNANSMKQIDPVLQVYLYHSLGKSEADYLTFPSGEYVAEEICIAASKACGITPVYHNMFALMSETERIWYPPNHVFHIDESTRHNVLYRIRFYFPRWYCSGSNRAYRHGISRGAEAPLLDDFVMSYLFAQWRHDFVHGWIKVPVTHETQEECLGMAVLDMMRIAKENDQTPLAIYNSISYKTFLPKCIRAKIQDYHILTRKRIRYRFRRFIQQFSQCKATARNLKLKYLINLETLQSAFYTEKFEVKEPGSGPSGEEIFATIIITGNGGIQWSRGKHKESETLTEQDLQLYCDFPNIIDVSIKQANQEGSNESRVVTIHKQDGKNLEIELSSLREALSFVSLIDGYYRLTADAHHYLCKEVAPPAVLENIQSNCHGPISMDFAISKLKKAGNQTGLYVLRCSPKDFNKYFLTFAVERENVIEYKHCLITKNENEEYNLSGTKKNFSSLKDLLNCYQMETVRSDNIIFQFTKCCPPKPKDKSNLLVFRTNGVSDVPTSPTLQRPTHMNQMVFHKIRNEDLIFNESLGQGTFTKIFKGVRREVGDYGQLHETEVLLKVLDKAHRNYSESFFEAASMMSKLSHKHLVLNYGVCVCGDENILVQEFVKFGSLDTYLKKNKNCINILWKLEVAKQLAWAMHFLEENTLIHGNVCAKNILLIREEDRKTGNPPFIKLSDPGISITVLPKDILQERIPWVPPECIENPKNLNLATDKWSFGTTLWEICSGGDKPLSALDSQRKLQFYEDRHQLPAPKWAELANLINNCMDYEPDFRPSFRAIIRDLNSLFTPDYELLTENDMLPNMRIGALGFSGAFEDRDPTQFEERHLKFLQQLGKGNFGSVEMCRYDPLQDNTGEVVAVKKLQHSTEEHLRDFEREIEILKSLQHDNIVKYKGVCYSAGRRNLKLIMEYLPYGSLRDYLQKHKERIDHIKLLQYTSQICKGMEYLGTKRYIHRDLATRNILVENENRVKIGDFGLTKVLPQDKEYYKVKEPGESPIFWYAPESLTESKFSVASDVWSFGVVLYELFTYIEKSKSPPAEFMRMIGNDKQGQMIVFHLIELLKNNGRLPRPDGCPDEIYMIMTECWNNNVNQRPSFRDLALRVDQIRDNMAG
Procedure, shortened: as §1

TYK2 = TYK2 (Homo sapiens (Human), UniProt P29597); test: Biochemical JAK kinase assay (LanthaScreen), Tyk2; details: read-out: Tyk2 pKi (converted)
Chain of TYK2 (P29597 whole entry): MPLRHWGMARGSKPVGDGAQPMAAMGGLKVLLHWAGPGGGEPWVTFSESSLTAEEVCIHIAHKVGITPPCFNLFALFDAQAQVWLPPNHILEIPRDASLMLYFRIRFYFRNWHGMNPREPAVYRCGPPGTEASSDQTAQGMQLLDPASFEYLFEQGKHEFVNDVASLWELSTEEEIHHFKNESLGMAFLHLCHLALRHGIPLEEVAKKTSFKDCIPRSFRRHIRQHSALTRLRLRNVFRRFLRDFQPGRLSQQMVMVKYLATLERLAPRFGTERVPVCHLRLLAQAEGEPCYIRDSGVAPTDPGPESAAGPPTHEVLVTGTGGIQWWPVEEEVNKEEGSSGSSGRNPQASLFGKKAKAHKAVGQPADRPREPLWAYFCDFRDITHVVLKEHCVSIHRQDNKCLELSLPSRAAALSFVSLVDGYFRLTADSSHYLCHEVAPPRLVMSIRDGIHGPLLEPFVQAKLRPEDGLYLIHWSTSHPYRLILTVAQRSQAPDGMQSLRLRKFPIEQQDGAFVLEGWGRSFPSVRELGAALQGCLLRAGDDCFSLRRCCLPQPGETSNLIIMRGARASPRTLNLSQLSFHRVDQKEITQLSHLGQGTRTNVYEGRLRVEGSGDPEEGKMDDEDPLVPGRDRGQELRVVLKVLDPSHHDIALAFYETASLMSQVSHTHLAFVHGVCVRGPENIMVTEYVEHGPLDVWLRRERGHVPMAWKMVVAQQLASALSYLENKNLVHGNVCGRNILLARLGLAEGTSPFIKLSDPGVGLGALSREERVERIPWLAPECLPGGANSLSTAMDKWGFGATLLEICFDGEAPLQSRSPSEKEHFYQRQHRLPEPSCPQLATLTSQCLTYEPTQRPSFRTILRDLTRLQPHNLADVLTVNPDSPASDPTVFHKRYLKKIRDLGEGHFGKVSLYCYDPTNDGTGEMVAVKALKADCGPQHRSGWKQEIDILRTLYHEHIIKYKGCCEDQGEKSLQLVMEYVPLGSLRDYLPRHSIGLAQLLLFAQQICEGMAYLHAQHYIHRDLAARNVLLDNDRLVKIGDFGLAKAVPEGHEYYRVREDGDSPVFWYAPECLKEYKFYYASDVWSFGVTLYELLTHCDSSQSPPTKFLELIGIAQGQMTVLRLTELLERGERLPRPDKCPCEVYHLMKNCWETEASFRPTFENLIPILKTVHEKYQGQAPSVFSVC
Procedure, shortened: as §1

JAK3 = JAK3 (Homo sapiens (Human), UniProt P52333); test: Biochemical JAK kinase assay (LanthaScreen), JAK3; details: read-out: JAK3 pKi (converted)
Chain of JAK3 (P52333 whole entry): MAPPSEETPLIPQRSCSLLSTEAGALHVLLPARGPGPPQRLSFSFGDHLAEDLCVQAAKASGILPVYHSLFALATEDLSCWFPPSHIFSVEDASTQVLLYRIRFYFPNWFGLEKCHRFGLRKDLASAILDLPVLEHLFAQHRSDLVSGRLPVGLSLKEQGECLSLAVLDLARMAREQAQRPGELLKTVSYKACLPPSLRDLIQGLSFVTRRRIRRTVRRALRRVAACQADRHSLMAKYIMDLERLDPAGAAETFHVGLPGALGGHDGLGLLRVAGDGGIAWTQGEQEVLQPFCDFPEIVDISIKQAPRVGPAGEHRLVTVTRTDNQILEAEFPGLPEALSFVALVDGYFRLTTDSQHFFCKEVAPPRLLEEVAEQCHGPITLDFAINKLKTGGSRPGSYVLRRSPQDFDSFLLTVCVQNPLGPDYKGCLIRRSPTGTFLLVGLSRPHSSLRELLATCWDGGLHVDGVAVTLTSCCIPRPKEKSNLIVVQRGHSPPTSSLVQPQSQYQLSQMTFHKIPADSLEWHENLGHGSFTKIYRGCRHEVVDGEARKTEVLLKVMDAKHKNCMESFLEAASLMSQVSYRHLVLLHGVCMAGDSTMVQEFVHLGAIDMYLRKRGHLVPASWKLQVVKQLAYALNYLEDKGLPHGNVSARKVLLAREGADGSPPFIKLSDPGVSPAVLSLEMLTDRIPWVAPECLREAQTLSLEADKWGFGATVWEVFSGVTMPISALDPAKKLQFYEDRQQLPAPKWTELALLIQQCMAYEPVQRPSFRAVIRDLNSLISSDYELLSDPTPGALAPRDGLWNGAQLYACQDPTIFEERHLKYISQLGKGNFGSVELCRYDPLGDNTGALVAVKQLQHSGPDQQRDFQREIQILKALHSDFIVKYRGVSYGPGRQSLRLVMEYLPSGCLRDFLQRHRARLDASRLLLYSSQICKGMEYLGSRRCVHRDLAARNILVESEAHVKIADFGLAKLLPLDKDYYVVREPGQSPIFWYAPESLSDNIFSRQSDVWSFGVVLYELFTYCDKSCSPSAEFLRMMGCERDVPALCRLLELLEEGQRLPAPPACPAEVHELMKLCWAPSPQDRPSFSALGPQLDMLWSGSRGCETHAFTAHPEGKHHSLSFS
Procedure, shortened: as §1

Question: Which results are given for CCc1cc(O)ccc1-c1ccc2c(-c3nc(C4=CCN(CCCO)CC4)c[nH]3)n[nH]c2c1 [Example 34]?
Answer: IC50 [1]: 3.16 to 10 nM; JAK1 pKi (JAK1): A (A represents a pKi value ≥10 (Ki≤0.1 nM)); JAK2 pKi (JAK2): A (A represents a pKi value ≥10 (Ki≤0.1 nM)); Ki (TYK2): 1 to 10 nM; Ki (JAK3): 0.1 to 1 nM

Question: How did the IC50 [1] turn out when CCc1cc(O)ccc1-c1ccc2c(-c3nc(C4=CCCN(C[C@@H]5COCCN5)C4)c[nH]3)n[nH]c2c1F [Example 196] was run?
Answer: 31.6 to 100 nM

Question: What about the Ki (JAK1) of the same molecule?
Answer: 1 to 10 nM

Question: And the Ki (JAK2)?
Answer: 0.1 to 1 nM

Question: What about the Ki (TYK2) of the same molecule?
Answer: 10 to 100 nM

Question: What about the Ki (JAK3) of the same molecule?
Answer: 0.1 to 1 nM

Question: Which results are given for CCc1cc(O)ccc1-c1ccc2c(-c3nc(C4=CCN(CCSC)CC4)c[nH]3)n[nH]c2c1F [Example 81]?
Answer: IC50 [1]: 31.6 to 100 nM; Ki (JAK1): 0.1 to 1 nM; JAK2 pKi (JAK2): A (A represents a pKi value ≥10 (Ki≤0.1 nM)); Ki (TYK2): 1 to 10 nM; Ki (JAK3): 0.1 to 1 nM

Question: Which IC50 [1] does the source give for CCc1cc(O)ccc1-c1ccc2c(-c3nc(C4=CCCN(C(C)C)C4)c[nH]3)n[nH]c2c1F [Example 30] here?
Answer: 10 to 31.6 nM

Question: And the Ki (JAK1)?
Answer: 0.1 to 1 nM

Question: And the Ki (JAK2)?
Answer: 0.1 to 1 nM

Question: And the Ki (TYK2)?
Answer: 1 to 10 nM

Question: And the Ki (JAK3)?
Answer: 0.1 to 1 nM

Question: With CCc1cc(O)ccc1-c1ccc2c(-c3nc(C4=CCN(C5CN(C)C5)CC4)c[nH]3)n[nH]c2c1F [Example 186] as the molecule, how does the IC50 [1] read?
Answer: 3.16 to 10 nM

Question: What about the Ki (JAK1) of the same molecule?
Answer: 0.1 to 1 nM

Question: What about the Ki (JAK2) of the same molecule?
Answer: 0.1 to 1 nM

Question: What about the Ki (TYK2) of the same molecule?
Answer: 1 to 10 nM

Question: And the Ki (JAK3)?
Answer: 0.1 to 1 nM

Question: Which results are given for CCc1cc(O)ccc1-c1ccc2c(-c3nc(C4=CCCN(CCSC)C4)c[nH]3)n[nH]c2c1F [Example 90]?
Answer: IC50 [1]: 31.6 to 100 nM; Ki (JAK1): 0.1 to 1 nM; Ki (JAK2): 0.1 to 1 nM; Ki (TYK2): 10 to 100 nM; Ki (JAK3): 0.1 to 1 nM

Question: For CCc1cc(O)ccc1-c1ccc2c(-c3nc(C4=CCCN(C)C4)c[nH]3)n[nH]c2c1F [Example 29], which IC50 [1] is on record?
Answer: 3.16 to 10 nM

Question: And the Ki (JAK1)?
Answer: 0.1 to 1 nM

Question: And the Ki (JAK2)?
Answer: 0.1 to 1 nM

Question: And the Ki (TYK2)?
Answer: 1 to 10 nM

Question: What about the Ki (JAK3) of the same molecule?
Answer: 0.1 to 1 nM

Question: Which results are given for CCc1cc(O)ccc1-c1ccc2c(-c3nc(C4=CCN(C(=O)[C@@H](N)C(C)(C)O)CC4)c[nH]3)n[nH]c2c1F [Example 158]?
Answer: IC50 [1]: 31.6 to 100 nM; Ki (JAK1): 1 to 10 nM; Ki (JAK2): 0.1 to 1 nM; Ki (TYK2): 10 to 100 nM; Ki (JAK3): 0.1 to 1 nM

Question: How did the IC50 [1] turn out when CCc1cc(O)ccc1-c1ccc2c(-c3nc(C4=C(C)CNC4)c[nH]3)n[nH]c2c1F [Example 293] was run?
Answer: 3.16 to 10 nM

Question: What about the Ki (JAK1) of the same molecule?
Answer: 0.1 to 1 nM

Question: What about the Ki (JAK2) of the same molecule?
Answer: 0.1 to 1 nM

Question: And the Ki (TYK2)?
Answer: 0.1 to 1 nM

Question: And the Ki (JAK3)?
Answer: 0.1 to 1 nM

Question: For CCc1cc(O)ccc1-c1ccc2c(-c3nc(C4=CCN(CC(C)C)CC4)c[nH]3)n[nH]c2c1F [Example 25], which IC50 [1] is on record?
Answer: 10 to 31.6 nM

Question: What about the Ki (JAK1) of the same molecule?
Answer: 0.1 to 1 nM

Question: What about the Ki (JAK2) of the same molecule?
Answer: 0.1 to 1 nM

Question: And the Ki (TYK2)?
Answer: 10 to 100 nM

Question: What about the Ki (JAK3) of the same molecule?
Answer: 0.1 to 1 nM

Question: What does the source list for CCc1cc(O)ccc1-c1ccc2c(-c3nc(C4=CCN(C5CCNC5)C4)c[nH]3)n[nH]c2c1F (stereo not drawn) [Example 218]?
Answer: IC50 [1]: 31.6 to 100 nM; JAK1 pKi (JAK1): A (A represents a pKi value ≥10 (Ki≤0.1 nM)); JAK2 pKi (JAK2): A (A represents a pKi value ≥10 (Ki≤0.1 nM)); Ki (TYK2): 1 to 10 nM; Ki (JAK3): 0.1 to 1 nM

Question: With CCc1cc(O)ccc1-c1ccc2c(-c3nc(C4=CCN(C(=O)[C@@H](N)C(C)(C)O)CC4)c[nH]3)n[nH]c2c1 [Example 153] as the molecule, how does the IC50 [1] read?
Answer: 31.6 to 100 nM

Question: What about the Ki (JAK1) of the same molecule?
Answer: 0.1 to 1 nM

Question: And the “JAK2 pKi” value (JAK2)?
Answer: A (A represents a pKi value ≥10 (Ki≤0.1 nM))

Question: And the Ki (TYK2)?
Answer: 1 to 10 nM

Question: What about the Ki (JAK3) of the same molecule?
Answer: 0.1 to 1 nM

Question: CCc1cc(O)ccc1-c1ccc2c(-c3nc(C4=CCN(C5CCNC5)CC4)c[nH]3)n[nH]c2c1F (stereo not drawn) [Example 207] was tested. Which IC50 [1] did it give?
Answer: 100 to 316 nM

Question: And the Ki (JAK1)?
Answer: 0.1 to 1 nM

Question: What about the “JAK2 pKi” value (JAK2) of the same molecule?
Answer: A (A represents a pKi value ≥10 (Ki≤0.1 nM))

Question: What about the Ki (TYK2) of the same molecule?
Answer: 1 to 10 nM

Question: What about the Ki (JAK3) of the same molecule?
Answer: 0.1 to 1 nM

Question: CCc1cc(O)ccc1-c1ccc2c(-c3nc(C4=CCN(C5CCN(C)C5)C4)c[nH]3)n[nH]c2c1F (stereo not drawn) [Example 219] was tested. Which IC50 [1] did it give?
Answer: 10 to 31.6 nM

Question: What about the Ki (JAK1) of the same molecule?
Answer: 0.1 to 1 nM

Question: What about the “JAK2 pKi” value (JAK2) of the same molecule?
Answer: A (A represents a pKi value ≥10 (Ki≤0.1 nM))

Question: And the Ki (TYK2)?
Answer: 0.1 to 1 nM

Question: What about the Ki (JAK3) of the same molecule?
Answer: 0.1 to 1 nM

Question: What does the source list for CCc1cc(O)ccc1-c1ccc2c(-c3nc(C4=CC(C)NC4)c[nH]3)n[nH]c2c1F (stereo not drawn) [Example 244]?
Answer: IC50 [1]: 3.16 to 10 nM; Ki (JAK1): 0.1 to 1 nM; Ki (JAK2): 0.1 to 1 nM; Ki (TYK2): 1 to 10 nM; Ki (JAK3): 0.1 to 1 nM
